Test system: Human induced pluripotent stem cells (hPSCs)
Test: 3D dopaminergic neuron differentiation of hPSCs with tyrosine hydroxylase immunocytochemistry
Assay type: cell-based
Conditions: for expression of tyrosine hydroxylase in differentiating aggregates: by day 20, immunocytochemistry, FGF8, TGF-β, BDNF, GDNF removed and replaced with BT-13 or Q525, FIGS. 3 and 5; for production of hPSC-derived neurons expressing the functional biomarker Tyrosine Hydroxylase: replacement of GDNF, BDNF and TGF-β in maturation media from Day 11, BT-13 5 μM or Q525 5 nM, with DAPT 10 uM, 3D AXgel
Method: Human Pluripotent Stem Cell Culture. Human […] (hPSCs) (ThermoFisher A 18945) were subcultured in monolayer format on a layer of 1% Matrigel and maintained in Essential 8 medium during expansion. At 80% confluency, H9s were passaged using Versene solution and replated at a 1:8 split.
3D hPSC Culture Seeding. hPSCs were dissociated into single cells using Accutase solution and resuspended in Essential 8 (E8) medium containing 10 μM Y-27632 (Rock Inhibitor, RI). hPSCs were counted and resuspended at defined densities in 11% AXgel on ice. Cells suspended in AXgel were dispensed into a multi-well tissue culture plate and heated to 37° C. for 15 minutes and afterward pre-warmed E8 medium containing 10 μM RI was added to each well. 3D cell suspensions remained in E8 with RI for 2 days (from Day −2 to Day 0).
3D Dopaminergic Neuron Differentiation. Starting Day 0, hPSCs in AXgel were transitioned to differentiation media to induce neural lineage commitment and subsequently specification into midbrain dopaminergic neurons. Starting Day 11, neural precursors were transitioned to maturation media containing GDNF agonist BT-13 (5 μM) or Q525 (5 nM) in place of proteins GDNF, BDNF, and TGF-β. Media formulations were according to Table 2: […]
Immunocytochemistry. At the endpoint of the experiment, cell aggregates were harvested from AXgel by replacing warm media with chilled media and plated on 8-chamber culture slides coated with 10 μg/mL laminin and cultured overnight in the incubator to allow aggregates to adhere to the surface. Aggregates attached to the culture slide were then fixed using 4% paraformaldehyde (PFA) for 15 minutes. Aggregates were washed twice in PBS for 5 minutes each and incubated in 0.25% Triton-X+5% donkey serum in PBS for 10 minutes to permeabilize cells. After permeabilization, aggregates were washed 5 times in 5% donkey serum for 5 minutes each and incubated with primary antibodies of interest diluted in PBS+donkey serum (dilution details in Table 3), and stored overnight at 4° C. After primary staining, aggregates were washed twice in PBS for 5 minutes each and incubated in solution containing the corresponding secondary antibodies (dilution details in Table 3), and incubated at 37° C. for 2 hours. After secondary staining, aggregates were washed twice in PBS for 5 minutes each and culture slides were mounted with a cover slip to be imaged.
Microscopy. Live cell aggregates suspended in AXgel were periodically imaged during the experiment using an EVOS XL Core Imaging System for transmitted light microscopy available in the Cell and Tissue Analysis Facility through QB3-Berkeley. Fixed, stained, and mounted cell aggregates were imaged with a 20× or 40× objective using a Perkin Elmer Opera Phenix automated confocal fluorescence microscope available in the High-Throughput Screening Facility through QB3-Berkeley. Laser exposure time and power was kept constant for a fluorescence channel within an imaging set.

Row | SMILES | expression of tyrosine hydroxylase in differentiating aggregates | production of hPSC-derived neurons expressing the functional biomarker Tyrosine Hydroxylase | tyrosine hydroxylase-positive neurons (FIG. 5) (day 18, 10 nM Q525 in differentiation media free of GDNF, BDNF and TGFβ3, induction media without FGF8)
1 | CCN(CC)S(=O)(=O)c1ccc(OC)c(N2CCN(C(=O)c3ccc(F)cc3C(F)(F)F)CC2)c1 [BT-13, N,N-diethyl-3-[4-[4-fluoro-2-(trifluoromethyl)-benzoyl]piperazin-1-yl]-4-methoxybenzenesulfonamide] | detected in neuronal cell bodies within all of the differentiating aggregates | sufficient to produce hPSC-derived neurons expressing the functional biomarker Tyrosine Hydroxylase | 
2 | O=C1C(Nc2ccc(CO)cc2)=C(O)C(=O)c2ncccc21 [Q525] | detected in neuronal cell bodies within all of the differentiating aggregates | sufficient to produce hPSC-derived neurons expressing the functional biomarker Tyrosine Hydroxylase | tyrosine hydroxylase-positive neurons at day 18

— patent US20250066722A1, “METHODS FOR PRODUCTION OF FUNCTIONAL NEURONS” (AXENT BIOSCIENCES INC., priority 2021, published 2025)
